Activity calls are given as the source filed them. The rule behind the calls is not given here.
What was measured:
[1] = biological target: DNA (cytosine-5)-methyltransferase 1 (Homo sapiens) (UniProt P26358); test: Inhibition of human DNA methyltransferase using S-adenosyl-L-methionine substrate at 10 to 1000 uM measured after 60 mins
[2] = biological target: DNA (cytosine-5)-methyltransferase 1 (Homo sapiens) (UniProt P26358); test: Inhibition of human DNA methyltransferase using S-adenosyl-L-methionine substrate at 10 uM measured after 60 mins
[3] = biological target: DNA (cytosine-5)-methyltransferase 1 (Homo sapiens) (UniProt P26358); test: Inhibition of human DNA methyltransferase using S-adenosyl-L-methionine substrate at 1000 uM measured after 60 mins

Chain of DNA (cytosine-5)-methyltransferase 1 (Homo sapiens) (P26358 whole entry): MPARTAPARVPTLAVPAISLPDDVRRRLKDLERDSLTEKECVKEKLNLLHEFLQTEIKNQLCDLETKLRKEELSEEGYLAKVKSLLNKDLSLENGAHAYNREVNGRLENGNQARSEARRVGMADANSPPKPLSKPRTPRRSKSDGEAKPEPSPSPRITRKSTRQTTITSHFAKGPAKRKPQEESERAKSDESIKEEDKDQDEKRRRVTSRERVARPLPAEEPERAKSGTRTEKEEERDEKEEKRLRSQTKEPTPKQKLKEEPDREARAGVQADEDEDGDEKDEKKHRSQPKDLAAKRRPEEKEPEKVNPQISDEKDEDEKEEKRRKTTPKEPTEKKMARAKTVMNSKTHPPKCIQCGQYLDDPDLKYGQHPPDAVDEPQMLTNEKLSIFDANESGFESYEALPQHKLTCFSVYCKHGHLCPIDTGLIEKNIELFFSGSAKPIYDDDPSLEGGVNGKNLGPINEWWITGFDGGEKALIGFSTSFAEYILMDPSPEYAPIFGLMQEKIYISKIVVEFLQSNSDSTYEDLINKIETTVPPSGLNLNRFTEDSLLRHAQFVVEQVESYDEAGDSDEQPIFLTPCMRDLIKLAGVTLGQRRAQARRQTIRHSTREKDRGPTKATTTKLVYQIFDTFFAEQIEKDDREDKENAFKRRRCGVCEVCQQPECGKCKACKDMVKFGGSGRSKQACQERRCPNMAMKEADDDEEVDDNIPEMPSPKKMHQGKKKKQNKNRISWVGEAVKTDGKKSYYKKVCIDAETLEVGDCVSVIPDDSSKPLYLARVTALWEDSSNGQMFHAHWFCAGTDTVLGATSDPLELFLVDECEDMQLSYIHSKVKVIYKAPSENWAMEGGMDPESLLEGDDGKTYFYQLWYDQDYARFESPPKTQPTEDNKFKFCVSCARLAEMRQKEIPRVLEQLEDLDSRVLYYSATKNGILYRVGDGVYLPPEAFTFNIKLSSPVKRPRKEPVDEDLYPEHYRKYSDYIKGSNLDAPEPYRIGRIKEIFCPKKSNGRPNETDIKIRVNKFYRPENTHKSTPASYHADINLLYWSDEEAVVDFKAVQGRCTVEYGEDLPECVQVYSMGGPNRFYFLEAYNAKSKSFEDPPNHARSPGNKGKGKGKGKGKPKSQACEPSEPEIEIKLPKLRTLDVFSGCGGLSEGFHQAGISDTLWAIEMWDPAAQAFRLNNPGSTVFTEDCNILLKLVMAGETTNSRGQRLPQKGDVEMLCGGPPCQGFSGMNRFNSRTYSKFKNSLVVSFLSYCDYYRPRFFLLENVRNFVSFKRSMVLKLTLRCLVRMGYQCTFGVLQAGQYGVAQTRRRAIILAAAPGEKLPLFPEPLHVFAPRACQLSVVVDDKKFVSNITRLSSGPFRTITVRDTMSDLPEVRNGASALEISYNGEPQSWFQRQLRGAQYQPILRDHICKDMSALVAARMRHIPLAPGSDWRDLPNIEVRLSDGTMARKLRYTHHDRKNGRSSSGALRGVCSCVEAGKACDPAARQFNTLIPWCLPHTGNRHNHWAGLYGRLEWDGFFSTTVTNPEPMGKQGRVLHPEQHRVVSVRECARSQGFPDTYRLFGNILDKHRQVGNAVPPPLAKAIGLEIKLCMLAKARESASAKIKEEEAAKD

Compound | inhibition [1] | inhibition [2] [%] | inhibition [3] [%]
O=C(O)[C@H](Cc1c[nH]c2ccccc12)N1C(=O)CCC1=O | inactive | – | –
O=C(O)[C@H](Cc1c[nH]c2ccccc12)N1C(=O)c2ccccc2C1=O | – | – | 34
CC1=CC(=O)N([C@@H](Cc2c[nH]c3ccccc23)C(=O)O)C1=O | Active | – | –
O=C(O)[C@H](Cc1c[nH]c2ccccc12)N1C(=O)C=C(c2ccccc2)C1=O | Active | – | –

The next lines start with the values.

inhibition [1] | inhibition [2] [%] | inhibition [3] [%] | Compound
Active | – | – | CC1=C(C)C(=O)N([C@@H](Cc2c[nH]c3ccccc23)C(=O)O)C1=O
Active | 60 | – | O=C(O)[C@H](Cc1c[nH]c2ccccc12)N1C(=O)C=CC1=O

From ChEMBL document CHEMBL1777770, “Design, synthesis, inhibitory activity, and binding mode study of novel DNA methyltransferase 1 inhibitors” (Bioorg Med Chem Lett, 2010)
